The nature of the data set: active ingredient concentration over time in 50% ethanol solution (pullulan precipitating agent). Type of data set: physicochemical. As to conditions: 50% ethanol solution in buffer, 25 minutes, one data point every five minutes (FIG. 7). The protocol: FIGS. 6-8 show examples of removing pullulan by precipitation using an alcohol or PEG. As an alternative, pullulan can be removed by precipitation using either an alcohol or polyethylene glycol (PEG). In this approach, the precipitating agent is added to the solution and causes pullulan to form a white solid. The active ingredient is not affected by this addition. The solid can be stopped from getting into the solution by either an appropriate container or a simple filter. […] In FIG. 7, a 50% ethanol solution was prepared in buffer. The active ingredient concentration was measured over time for 25 minutes (one data point every five minutes). […] Furthermore, measurements of the same concentration in straight buffer yield the same measured concentration of active ingredient.

Turning to `CC(=O)C(=O)OO` [active ingredient, peroxy pyruvic acid], the “measured concentration of active ingredient over time” value was “no statistical difference”.

These data come from patent US9283202B2, “Stable peracid-containing compositions” (CHD Bioscience, Inc., priority 2012, dated 2016).
